Test results as given in US20150164762A1, “USE OF ETHANOLAMINE PHOSPHATE” (priority 2012, published 2015).

Test system: BEAS-2B
Assay: Comprehensive gene expression analysis with Whole Human Genome DNA microarray after EP treatment
Type: cell-based
Description: Cells of the established normal human airway epithelial cell line BEAS-2B were used in the experiment. These cells were expansively cultured in 10% FBS RPMI-1640, and seeded at a density of 1×10^5/cm^2 on a 24-well plate. After 24 hours 0.1% FBS RPMI-1640 was substituted, and EP was administered to a final concentration of 0 or 1 mM (n=4). After 24 hours, the cells were used as the DNA microarray samples. RNA was extracted using a QIAGEN RNeasy Mini Kit. The DNA microarray test was performed using a Whole Human Genome DNA microarray 4×44K (Agilent), and the necessary labeling reagents and the like for the DNA microarray test were all from Agilent. The DNA microarray test data were analyzed statistically with GeneSpring (Agilent) dedicated analysis software, and gene function analysis (Gene Ontology (GO) analysis) was performed based on differential expression. The purpose of the GO analysis is to determine stochastically the degree to which gene sets with statistically significant differential expression correspond to known functional classification gene sets. […] The p-value is calculated according to the following formula.

NCCOP(=O)(O)O [EP, Ethanolamine phosphate]
expression of cytokines (1 mM EP, 24 h): reduced expression of many cytokines
R*: Ratio to control (AEN, probe A_23_P206077): 0.420 times
log2 [ratio] (AEN, probe A_23_P206077): −1.253
R*: Ratio to control (AGGF1, probe A_23_P250554): 1.523 times
log2 [ratio] (AGGF1, probe A_23_P250554): 0.607
R*: Ratio to control (AIFM2, probe A_32_P75094): 0.399 times
log2 [ratio] (AIFM2, probe A_32_P75094): −1.327
R*: Ratio to control (AIFM3, probe A_23_P258194): 0.590 times
log2 [ratio] (AIFM3, probe A_23_P258194): −0.761
R*: Ratio to control (ANXA2, probe A_23_P146644): 1.673 times
log2 [ratio] (ANXA2, probe A_23_P146644): 0.742
R*: Ratio to control (ANXA2, probe A_32_P94798): 1.614 times
log2 [ratio] (ANXA2, probe A_32_P94798): 0.691
R*: Ratio to control (APAF1, probe A_23_P36611): 0.420 times
log2 [ratio] (APAF1, probe A_23_P36611): −1.253
R*: Ratio to control (APPL1, probe A_24_P302833): 1.723 times
log2 [ratio] (APPL1, probe A_24_P302833): 0.785
R*: Ratio to control (ARHGAP24, probe A_23_P110151): 1.670 times
log2 [ratio] (ARHGAP24, probe A_23_P110151): 0.740
R*: Ratio to control (ARHGAP24, probe A_24_P388659): 1.745 times
log2 [ratio] (ARHGAP24, probe A_24_P388659): 0.803
R*: Ratio to control (ARHGEF6, probe A_23_P85024): 0.270 times
log2 [ratio] (ARHGEF6, probe A_23_P85024): −1.889
R*: Ratio to control (BAK1, probe A_23_P145357): 0.402 times
log2 [ratio] (BAK1, probe A_23_P145357): −1.313
R*: Ratio to control (BAX, probe A_23_P208706): 0.453 times
log2 [ratio] (BAX, probe A_23_P208706): −1.143
R*: Ratio to control (BAX, probe A_23_P346311): 0.511 times
log2 [ratio] (BAX, probe A_23_P346311): −0.969
R*: Ratio to control (BBC3, probe A_23_P382775): 0.315 times
log2 [ratio] (BBC3, probe A_23_P382775): −1.666
R*: Ratio to control (BBC3, probe A_24_P305312): 0.366 times
log2 [ratio] (BBC3, probe A_24_P305312): −1.452
R*: Ratio to control (BCAT1, probe A_24_P935986): 1.721 times
log2 [ratio] (BCAT1, probe A_24_P935986): 0.783
R*: Ratio to control (BCL2L11, probe A_24_P122921): 0.636 times
log2 [ratio] (BCL2L11, probe A_24_P122921): −0.652
R*: Ratio to control (BCL2L14, probe A_23_P128050): 0.594 times
log2 [ratio] (BCL2L14, probe A_23_P128050): −0.751
R*: Ratio to control (BCL10, probe A_23_P115286): 0.542 times
log2 [ratio] (BCL10, probe A_23_P115286): −0.883
R*: Ratio to control (BCL10, probe A_24_P19983): 0.571 times
log2 [ratio] (BCL10, probe A_24_P19983): −0.810
R*: Ratio to control (BIK, probe A_23_P404867): 0.298 times
log2 [ratio] (BIK, probe A_23_P404867): −1.748
R*: Ratio to control (BLOC1S2, probe A_23_P23960): 0.396 times
log2 [ratio] (BLOC1S2, probe A_23_P23960): −1.336
R*: Ratio to control (BLOC1S2, probe A_24_P295543): 0.384 times
log2 [ratio] (BLOC1S2, probe A_24_P295543): −1.381
R*: Ratio to control (BMP4, probe A_23_P54144): 1.820 times
log2 [ratio] (BMP4, probe A_23_P54144): 0.864
R*: Ratio to control (BNIP3, probe A_23_P138635): 0.374 times
log2 [ratio] (BNIP3, probe A_23_P138635): −1.418
R*: Ratio to control (BNIP3L, probe A_23_P134925): 0.633 times
log2 [ratio] (BNIP3L, probe A_23_P134925): −0.661
R*: Ratio to control (BTG1, probe A_23_P87560): 0.416 times
log2 [ratio] (BTG1, probe A_23_P87560): −1.265
R*: Ratio to control (C16orf5, probe A_23_P15247): 0.519 times
log2 [ratio] (C16orf5, probe A_23_P15247): −0.947
R*: Ratio to control (CASP1, probe A_23_P202978): 0.641 times
log2 [ratio] (CASP1, probe A_23_P202978): −0.642
R*: Ratio to control (CASP10, probe A_23_P209408): 0.552 times
log2 [ratio] (CASP10, probe A_23_P209408): −0.857
R*: Ratio to control (CASP10, probe A_24_P139993): 0.609 times
log2 [ratio] (CASP10, probe A_24_P139993): −0.716
R*: Ratio to control (CCBE1, probe A_23_P55544): 1.755 times
log2 [ratio] (CCBE1, probe A_23_P55544): 0.811
R*: Ratio to control (CCBE1, probe A_32_P171043): 1.890 times
log2 [ratio] (CCBE1, probe A_32_P171043): 0.918
R*: Ratio to control (CDKN1A, probe A_23_P59210): 0.439 times
log2 [ratio] (CDKN1A, probe A_23_P59210): −1.187
R*: Ratio to control (CDKN1A, probe A_24_P89457): 0.294 times
log2 [ratio] (CDKN1A, probe A_24_P89457): −1.768
R*: Ratio to control (CEBPB, probe A_23_P143242): 0.617 times
log2 [ratio] (CEBPB, probe A_23_P143242): −0.697
R*: Ratio to control (CEBPB, probe A_23_P411296): 0.383 times
log2 [ratio] (CEBPB, probe A_23_P411296): −1.385
R*: Ratio to control (CIDEC, probe A_23_P92025): 0.593 times
log2 [ratio] (CIDEC, probe A_23_P92025): −0.754
R*: Ratio to control (CKLF, probe A_23_P118061): 1.501 times
log2 [ratio] (CKLF, probe A_23_P118061): 0.586
R*: Ratio to control (CKLF, probe A_23_P206396): 1.601 times
log2 [ratio] (CKLF, probe A_23_P206396): 0.679
R*: Ratio to control (CKLF, probe A_24_P215804): 1.551 times
log2 [ratio] (CKLF, probe A_24_P215804): 0.633
R*: Ratio to control (CKS2, probe A_23_P71727): 1.510 times
log2 [ratio] (CKS2, probe A_23_P71727): 0.595
R*: Ratio to control (COL8A1, probe A_23_P69030): 1.999 times
log2 [ratio] (COL8A1, probe A_23_P69030): 0.999
R*: Ratio to control (COL8A1, probe A_23_P211762): 1.643 times
log2 [ratio] (COL8A1, probe A_23_P211762): 0.716
R*: Ratio to control (COL8A1, probe A_24_P139152): 1.703 times
log2 [ratio] (COL8A1, probe A_24_P139152): 0.768
R*: Ratio to control (DDIT3, probe A_23_P21134): 0.210 times
log2 [ratio] (DDIT3, probe A_23_P21134): −2.249
R*: Ratio to control (FGF9, probe A_23_P105803): 1.606 times
log2 [ratio] (FGF9, probe A_23_P105803): 0.684
R*: Ratio to control (GLI2, probe A_23_P500034): 2.060 times
log2 [ratio] (GLI2, probe A_23_P500034): 1.043
R*: Ratio to control (HAND2, probe A_23_P373521): 1.971 times
log2 [ratio] (HAND2, probe A_23_P373521): 0.979
R*: Ratio to control (IFI16, probe A_23_P217866): 0.585 times
log2 [ratio] (IFI16, probe A_23_P217866): −0.773
R*: Ratio to control (IFNG, probe A_23_P151294): 0.611 times
log2 [ratio] (IFNG, probe A_23_P151294): −0.710
R*: Ratio to control (IKBIP, probe A_23_P53467): 0.626 times
log2 [ratio] (IKBIP, probe A_23_P53467): −0.675
R*: Ratio to control (IKBIP, probe A_23_P303210): 0.468 times
log2 [ratio] (IKBIP, probe A_23_P303210): −1.095
R*: Ratio to control (IL1A, probe A_23_P72096): 0.216 times
log2 [ratio] (IL1A, probe A_23_P72096): −2.211
R*: Ratio to control (KNG1, probe A_32_P230808): 0.358 times
log2 [ratio] (KNG1, probe A_32_P230808): −1.484
R*: Ratio to control (LEPR, probe A_24_P231104): 1.659 times
log2 [ratio] (LEPR, probe A_24_P231104): 0.730
R*: Ratio to control (LOX, probe A_23_P122216): 1.637 times
log2 [ratio] (LOX, probe A_23_P122216): 0.711
R*: Ratio to control (MAP3K10, probe A_24_P284523): 0.570 times
log2 [ratio] (MAP3K10, probe A_24_P284523): −0.810
R*: Ratio to control (MAPRE2, probe A_23_P89835): 1.538 times
log2 [ratio] (MAPRE2, probe A_23_P89835): 0.621
R*: Ratio to control (MAPRE2, probe A_24_P193911): 1.666 times
log2 [ratio] (MAPRE2, probe A_24_P193911): 0.736
R*: Ratio to control (MMP2, probe A_23_P163787): 1.578 times
log2 [ratio] (MMP2, probe A_23_P163787): 0.658
R*: Ratio to control (MVC, probe A_24_P38363): 1.686 times
log2 [ratio] (MVC, probe A_24_P38363): 0.754
R*: Ratio to control (NLRP1, probe A_23_P89550): 0.483 times
log2 [ratio] (NLRP1, probe A_23_P89550): −1.048
R*: Ratio to control (NLRP1, probe A_24_P83615): 0.558 times
log2 [ratio] (NLRP1, probe A_24_P83615): −0.841
R*: Ratio to control (NR2F2, probe A_23_P88589): 1.662 times
log2 [ratio] (NR2F2, probe A_23_P88589): 0.733
R*: Ratio to control (NR2F2, probe A_24_P313354): 1.746 times
log2 [ratio] (NR2F2, probe A_24_P313354): 0.804
R*: Ratio to control (NR4A1, probe A_23_P128230): 0.302 times
log2 [ratio] (NR4A1, probe A_23_P128230): −1.727
R*: Ratio to control (NRP1, probe A_24_P135322): 1.664 times
log2 [ratio] (NRP1, probe A_24_P135322): 0.735
R*: Ratio to control (NRP1, probe A_24_P928052): 1.990 times
log2 [ratio] (NRP1, probe A_24_P928052): 0.993
R*: Ratio to control (NTF3, probe A_23_P360797): 0.492 times
log2 [ratio] (NTF3, probe A_23_P360797): −1.024
R*: Ratio to control (NTRK1, probe A_23_P34804): 0.261 times
log2 [ratio] (NTRK1, probe A_23_P34804): −1.936
R*: Ratio to control (OBSCN, probe A_24_P273157): 0.654 times
log2 [ratio] (OBSCN, probe A_24_P273157): −0.613
